# Results from patent publication US20030216361A1, “Therapeutic compositions effective against gram positive bacteria” (priority 2000, published 2003).
# “And” between values parts separate entries of the source, which are not always exact repeats. Identical values can stand only once. Marks after values point to notes of the source that are not given here.
# Legend:
# B. cereus = assay: Broth macrodilution MIC and MBC, clinical isolates; settings: 5 strains
# [1] = test system: ATCC 14154, mouse virulent Staphylococcus aureus; assay: Mouse model of topical Gram positive (Staphylococcus aureus) infection, infected suture; assay type: in vivo; settings: mice; for Total colonies (number of Staph colonies per suture), individual animals: animals 1-10; for Total colonies (number of Staph colonies per suture), Ave.: average of 10 animals
# Method: The model, as described in J. Gisby and J. Bryant, Antimicrobial Agents and Chemotherapy, February 2000, Vol. 44, No. 2, p 255-260, was used.
# Fifty HSD:ICR male mice weighing 12-14 grams were ordered and allowed to acclimate 7 days. Mice were allocated to 5 groups of 10 animals each.
# Group 1: infected suture placed, no treatment
# Group 2: topical GRPB, 12.5 mg/kg BID×7 days
# Group 3: topical GRPB, 25 mg/kg BID×7 days
# Group 4: clean suture, no treatment
# Group 5: enrofloxacin (Baytril) 10 mg/kg SQ SID×7 days
# ATCC 14154, mouse virulent Staphylococcus aureus was grown in BHI broth overnight (12 hours) at 38 degrees C. Forty-five minutes prior to surgery, silk suture (2-0 size, 1 cm lengths w/swaged-on blunt needle) was soaked in the broth for 30 minutes, excess liquid was then removed by blotting with filter paper.
# Mice were anesthetized with a ketamine (40 mg/kg), midazolam (2 mg/kg), and butorphanol (0.1 mg/kg) as a single IP injection.
# The skin on the back of the mouse was prepared for aseptic surgery by clipping, cleansing with iodine scrub, and rinsing with alcohol. Mice were kept warm during surgery on a recirculating hot water blanket.
# The suture was placed just under the skin on the dorsum of the animal using sterile instruments. The suture was knotted in the subcutaneous tissue to keep it in place. A half-thickness skin wound was made over the suture using the side of an 18 gauge needle as a scalpel.
# Mice were allowed to recover in the home cage.
# GRPB-10-15A was reconstituted as directed, using a minimal amount of methanol followed by dilution to required volume in sterile physiologic saline.
# Injections were given using insulin syringes with 30 gauge needles. Topical administration was placed over the wound site. The mice were first treated 4 hours after surgery and were treated once or twice daily thereafter.
# After 7 days of treatment animals were euthanized with IP pentobarbital euthanasia solution. The suture lengths were removed and placed in 2 mls phosphate buffered saline. Serial dilutions were performed and results reported as actual counts (number of Staph colonies per suture).
# Listeria monocytogenes = assay: Broth macrodilution MIC and MBC, clinical isolates; settings: 3 strains
# [2] = test system: Vancomycin-resistant E. faecium; assay: Broth macrodilution MIC and MBC, clinical isolates; settings: 2 strains
# [3] = test system: Listeria monocytogenes, clinical isolate; assay: Effect of pH on broth macrodilution MICs; assay type: cell-based
# [4] = test system: Bacillus subtilis Presque Isle 620; assay: Frequency of occurrence of spontaneous resistant mutants; assay type: cell-based; settings: 24 h
# Method: (§1) Overnight cultures of S. aureus 29213, E. faecalis 29212, S. pneumoniae 6303 and Bacillus subtilis 620 were diluted to an OD625nm=0.08 0.1 ml of each preparation was spread onto agar plates containing four or eight times the broth macrodilution MIC of the androstane derivative. The starting inoculum for each organism was also diluted and plated onto drug-free plates for determination of CFU/ml. After a 24 h incubation at the appropriate temperature, the number of bacterial colonies on drug-supplemented agar was counted. The frequency of occurrence of spontaneous mutants was calculated by dividing the number of colonies on drug containing plates by the number of colonies in the inoculum. When no colonies were visualized on drug-containing plates, the calculation was (<) 1 colony divided by the number of colonies in the inoculum.
# [5] = test system: Enterococcus faecalis ATCC 29212; assay: as above; assay type: cell-based; settings: 24 h
# Method: as §1
# [6] = test system: Staphylococcus aureus ATCC 29213; assay: as above; assay type: cell-based; settings: 24 h
# Method: as §1
# [7] = test system: Streptococcus pneumoniae ATCC 6303; assay: as above; assay type: cell-based; settings: 24 h
# Method: as §1
# [8] = test system: Pseudomonas aeruginosa Presque Isle 99; assay: Disk diffusion susceptibility testing
# [9] = test system: Enterococcus faecalis ATCC 29212; assay: Broth macrodilution MIC and MBC, reference strains; settings: ATCC29212
# Gardnerella vaginalis = assay: Broth macrodilution MIC and MBC, clinical isolates; settings: 2 strains
# [10] = test system: Corynebacterium diphtheriae; assay: Broth macrodilution MIC and MBC, clinical isolates; settings: 3 strains
# [11] = test system: Staphylococcus aureus ATCC 29213; assay: Broth macrodilution MIC and MBC, reference strains; settings: ATCC29213
# S. pneumoniae 6303 = assay: Time-kill studies; assay type: cell-based, Streptococcus pneumoniae
# Description: This experiment illustrates a study of the time required (time-kill studies) for anti-microbial action of 3β-acetoxy-17β-(L-prolyl) amino-5α-androstane with certain gram positive bacteria.
# Overnight cultures of Staphylococcus aureus 29213, Enterococcus faecalis 29212 and S. pneumoniae 6303 in MHII broth were inoculated into the same medium containing multiples of the broth macrodilution MIC of 3β-acetoxy-17β-(L-prolyl) amino-5α-androstane, or an equivalent volume of MeOH. Cultures were shaken at 37° C., and aliquots were aseptically removed at various times for dilution plating. Standard errors of the means were calculated from at least two experiments. The detection limit in these experiments was 10 CFU/ml.
# B. circulans = assay: Broth macrodilution MIC and MBC, clinical isolates; settings: clinical isolate, 1 strain
# [12] = test system: Bacillus subtilis Presque Isle 620; assay: Effect of pH on broth macrodilution MICs; assay type: cell-based
# [13] = Group 2 low GRPB, topical 12.5 mg/kg BID×7 days
# [14] = Group 3 high GRPB, topical 25 mg/kg BID×7 days
# [15] = pH 6, range of 3 determinations
# [16] = pH 8, range of 3 determinations
# [17] = agar with 4X broth macrodilution MIC
# [18] = agar with 8X broth macrodilution MIC
compound,measurement,setting,value
CC(=O)O[C@H]1CC[C@@]2(C)[C@@H](CC[C@@H]3[C@@H]2CC[C@]2(C)[C@@H](NC(=O)[C@@H]4CCCN4)CC[C@@H]32)C1,MBC Range,B. cereus,>64 µg/mL
same,MIC Range,B. cereus,32 µg/mL
same,"Total colonies (number of Staph colonies per suture), individual animals",[1]; [13],227 colonies per suture and 1993 colonies per suture and 832 colonies per suture and 317 colonies per suture and 1174 colonies per suture and 399 colonies per suture and 2523 colonies per suture and 968 colonies per suture and 739 colonies per suture and 1109 colonies per suture
same,"Total colonies (number of Staph colonies per suture), Ave.",[1]; [13],1028 colonies per suture
same,"Total colonies (number of Staph colonies per suture), individual animals",[1]; [14],890* colonies per suture and 328 colonies per suture and 483 colonies per suture and 289 colonies per suture and 626 colonies per suture and 572 colonies per suture and 456 colonies per suture and 344 colonies per suture and 565 colonies per suture and 362 colonies per suture
same,"Total colonies (number of Staph colonies per suture), Ave.",[1]; [14],492 colonies per suture
same,MBC Range,Listeria monocytogenes,32 to 64 µg/mL
same,MIC Range,Listeria monocytogenes,16 to 32 µg/mL
same,MBC Range,[2],16 to 64 µg/mL
same,MIC Range,[2],8 to 16 µg/mL
same,MIC Range,[3]; [15],32 µg/mL
same,MIC Range,[3]; [16],16 µg/mL
same,Frequency at 4X MIC,[4]; [17],<2.2 × 10^−7
same,Frequency at 8X MIC,[4]; [18],<2.2 × 10^−7
same,Frequency at 4X MIC,[5]; [17],8.9 × 10^−7
same,Frequency at 8X MIC,[5]; [18],<1 × 10^−8
same,Frequency at 4X MIC,[6]; [17],1.2 × 10^−6
same,Frequency at 8X MIC,[6]; [18],<6 × 10^−9
same,Frequency at 4X MIC,[7]; [17],<3.3 × 10^−6
same,Frequency at 8X MIC,[7]; [18],<3.3 × 10^−6
same,MIC,[8],>100 μg/disk
same,MBC,[9],32 µg/mL
same,MIC,[9],16 µg/mL
same,MBC Range,Gardnerella vaginalis,8 µg/mL
same,MIC Range,Gardnerella vaginalis; read after 48 h,4 µg/mL
same,MBC Range,[10],8 µg/mL
same,MIC Range,[10],4 to 8 µg/mL
same,MBC,[11],64 µg/mL
same,MIC,[11],4 µg/mL
same,Killing (concentration dependence),S. pneumoniae 6303,concentration-dependent
same,Killing (time dependence),S. pneumoniae 6303,time-dependent
same,time to 99.9% kill,S. pneumoniae 6303; at the MIC,6 h
same,survivors after 24 h,S. pneumoniae 6303; one times the MIC,no survivors
same,time to 99.9% kill,S. pneumoniae 6303; two times the MIC,2 h
same,survivors after 24 h,S. pneumoniae 6303; two times the MIC,no survivors
same,MBC Range,B. circulans,>64 µg/mL
same,MIC Range,B. circulans,16 µg/mL
same,MIC Range,[12]; [15],8 µg/mL
same,MIC Range,"[12]; pH 7, range of 3 determinations",4 to 8 µg/mL
same,MIC Range,[12]; [16],4 to 8 µg/mL
